Reference: patent publication US11026936B2, “Piperidinyl-propanone derivatives” (Merck Patent GmbH, priority 2016, dated 2021)

Legend:
PDHK2 = PDHK2 (Homo sapiens (Human), UniProt Q15119); experiment: Biochemical activity testing of PDHK2: PDC inactivation assay; settings: human rec PDHK2, PDC from porcine heart, ATP 5 μM; read-out: IC50 PDHK2 (enzyme assay)
From the text: Biochemical Activity Testing of PDHK2: PDC Inactivation Assay
The biochemical activity assay for PDHK2 is based on the inactivation of PDC through phosphorylation by PDHK2. The assay is run in two steps: the enzymatic PDHK2 reaction in which isolated PDC is phosphorylated by PDHK2 with ATP as co-substrate and the PDC activity assay in which pyruvate and NAD are converted to acetyl-CoA and NADH. The PDC activity correlates to the increase in NADH and thereby is detectable directly via the increasing fluorescence signal (Exc 340 nm, Em 450 nm). Inhibition of PDHK2 results in a lower phosphorylation status and thereby a less decrease in activity of PDC and a stronger increase in NADH fluorescence signal.
The PDC inactivation assay is performed in Greiner 384-well microtiter plates and is used for high throughput screen. 4 μl of PDHK2 (human, rec, Carna Bioscience, 10 ng/μl-137 nM final concentration) and PDC (isolated from porcine heart, Sigma-Aldrich, 20 mU/ml final concentration) are incubated in the absence or presence of the test compound (10 dilution concentrations) for 30 min at room temperature in kinase buffer (15 mM potassium phosphate buffer, pH 7.0, 60 mM KCl, 1.5 mM DTT, 2.5 mM MgCl2, 0.0125% (w/v) BSA, 0.125% Pluronic F-68). The kinase reaction is started by the addition of 4 μl ATP substrate solution (fc 5 μM in kinase buffer). After 30 min incubation at 37° C. 40 μl of PDC reaction solution (100 mM Tris/HCl, pH 7.8, 0.5 mM EDTA, 1 mM MgCl2, 50 mM NaF, 0.25 mM Coenzyme A, 5 mM pyruvate, 1 mM NAD, 5 mM DTT, 1 mM thiamine pyrophosphate) is added. The first fluorescence measurement is performed on a Perkin Elmer Envision (Exc 340 nm, Em 450 nm). The reaction is incubated for 45 min at room temperature. Afterwards a second fluorescence measurement is performed and the PDC activity is calculated by the difference between both measurements. As full value for the PDHK2 assay the inhibitor-free PDHK2 reaction is used. The pharmacological zero value used is DCA (Sigma-Aldrich) in a final concentration of 3 mM. The inhibitory values (IC50) were determined using either the program Symyx Assay Explorer® or Condosseo® from GeneData.

human PDHK2 (12-407) = human PDHK2 (12-407) (Homo sapiens (Human), UniProt Q15119); experiment: Isothermal titration calorimetry (ITC) binding; settings: 30° C., pH 7.5
Experimental: Isothermal Titration Calorimetry
ITC measurements were performed with a VP-ITC micro calorimeter (Microcal, LLC/GE Healthcare Bio-Sciences AB, Uppsala, Sweden). In general titrations were performed by titrating the protein (50 μM) to the test compound (5 μM) in 12 μl injections. All binding experiments were carried out at 30° C. In general the test compounds were diluted form DMSO stock solutions into the measurement buffer with a maximum final concentration of 1% DMSO. The measurement buffer was 20 mM HEPES, 135 mM KCl, 1 mM TCEP, 2 mM MgCl2, 15 mM NaH2PO4, pH 7.5. The human PDHK2 (12-407) was produced in E. coli as his-tagged protein and purified by affinity chromatography. The tag was removed by side specific proteolysis. Before titration the protein buffer was changed to the measurement buffer containing the same DMSO concentration as the test compound dilution. ITC data analysis was performed using Origin 7 calorimetry software from the same supplier. For most measurements a binding model of one binding site was assumed. According to the applied mathematical model it is possible to calculate the binding constant (KA), the observed binding enthalpy (ΔH^obs) as well as the stoichiometry (N) of the formed complex. Preceding analysis the raw data was corrected for the heats of dilution by extrapolating from the saturation value from the end of titration. In order to allow for direct comparison between the respective experimental series and protein preparations the protein concentration was corrected by referencing titrations to a well behaved standard inhibitor. The apparent stoichiometry values defined the fraction of binding competent protein and compensated for relative errors in protein concentration measurements. This corrected protein concentration was used to set up ITC experiment series with test compounds. Any deviations from ideal 1:1 stoichiometry observed here were attributed to errors in compound concentration. This nominal compound concentration was corrected as well to achieve 1:1 stoichiometry in the fit.

[1] = test system: PDH-E1alpha (pSer300) in HEK293T cells; experiment: Cellular immunofluorescence assay, PDH-E1alpha (pSer300); format: cell-based; settings: Homo sapiens, HEK-293T, 5 hours incubation, read-out: IC50 (cell data)
Experimental: Cellular Assay for Determination of Compound Activities
Compound activities were determined in a cellular immunofluorescence assay. Human HEK293T cells were seeded into black 384-well plates with clear bottom and grown overnight.
Next day, test compounds were added to the wells and the plates incubated for 5 hours. Following this, cells were fixed with formaldehyde, permeabilised and blocked. The primary antibody, Anti-PDH-E1alpha (pSer300), AP1064 (Merck Millipore) was added and incubated overnight in the plate wells. Next, cells were washed and the seconday antibody, Alexa Fluor 488, goat anti-rabbit ab (A-11008, Invitrogen) was added together with Hoechst 33258 (H3569, Invitrogen) and incubated for 1 hour in the plate wells. Finally, cells were washed and the plates were measured on the laser scanning cytometer acumen hci (TTpLabtech).
The raw data were normalized against a pharmacological inhibitor control and dose response curves were generated by plotting the percent effect values using the software package Genedata screener (Genedata).

SMILES	IC50 (PDHK2) [µM]	Kd (human PDHK2 (12-407)) [µM]	IC50 [1] [µM]
COc1ccc(-c2nnc(C3([C@H]4CCN(C(=O)[C@@](C)(O)C(F)(F)F)C[C@H]4C)CC3)[nH]2)cc1 [Compound A28, (R)-3,3,3-Trifluoro-2-hydroxy-1-((3S,4S)-4-{1-[5-(4-methoxy-phenyl)-4H-[1,2,4]triazol-3-yl]-cyclopropyl}-3-methyl-piperidin-1-yl)-2-methyl-propan-1-one]	0.088	0.0025	0.012
COc1ccc(-c2nnc(C3([C@H]4CCN(C(=O)[C@@](C)(O)C(F)(F)F)C[C@H]4C)CC3)o2)cc1 [Compound A31, (R)-3,3,3-Trifluoro-2-hydroxy-1-((3S,4S)-4-{1-[5-(4-methoxy-phenyl)-[1,3,4]oxadiazol-2-yl]-cyclopropyl}-3-methyl-piperidin-1-yl)-2-methyl-propan-1-one]	0.18	0.0036	0.017
C[C@@H]1CN(C(=O)[C@@](C)(O)C(F)(F)F)CC[C@@H]1C1(c2nnc(-c3ccc(Cl)cc3)[nH]2)CC1 [Compound A34, (R)-1-((3S,4S)-4-{1-[5-(4-Chloro-phenyl)-4H-[1,2,4]triazol-3-yl]-cyclopropyl}-3-methyl-piperidin-1-yl)-3,3,3-trifluoro-2-hydroxy-2-methyl-propan-1-one]	0.18	0.0028	0.019
C[C@@H]1CN(C(=O)[C@@](C)(O)C(F)(F)F)CC[C@@H]1C1(c2nnc(-c3ccc(Cl)cc3)o2)CC1 [Compound A37, (R)-1-((3S,4S)-4-{1-[5-(4-Chloro-phenyl)-[1,3,4]oxadiazol-2-yl]-cyclopropyl}-3-methyl-piperidin-1-yl)-3,3,3-trifluoro-2-hydroxy-2-methyl-propan-1-one]	0.13	0.0024	0.025
COc1ccc(-c2nnc(C3([C@H]4CCN(C(=O)[C@@](C)(O)C(F)(F)F)C[C@H]4C)CC3)[nH]2)cn1 [Compound A40, (R)-3,3,3-Trifluoro-2-hydroxy-1-((3S,4S)-4-{1-[5-(6-methoxy-pyridin-3-yl)-4H-[1,2,4]triazol-3-yl]-cyclopropyl}-3-methyl-piperidin-1-yl)-2-methyl-propan-1-one]	0.091	0.0065	0.025
COc1ccc(-c2nnc(C3([C@H]4CCN(C(=O)[C@@](C)(O)C(F)(F)F)C[C@H]4C)CC3)o2)cn1 [Compound A43, (R)-3,3,3-Trifluoro-2-hydroxy-1-((3S,4S)-4-{1-[5-(6-methoxy-pyridin-3-yl)-[1,3,4]oxadiazol-2-yl]-cyclopropyl}-3-methyl-piperidin-1-yl)-2-methyl-propan-1-one]	0.1	0.0038	0.016
